Measured values from patent US10172875B2, “Therapeutic combinations comprising anti-FOLR1 immunoconjugates” (ImmunoGen, Inc., priority 2015, dated 2019).
Read-outs that look alike come from different tables or passages of the source.

Assays:
[1] = test system: IGROV-1 cells; assay: Cell cycle analysis, IMGN853 and carboplatin (FIG. 9B); assay type: cell-based; conditions: carboplatin 20 μM, IMGN853 8 nM, alone or combined, 6 hours, then 24 hour drug-free medium
Procedure: Cells were washed, and cell cycle distribution determined following 24 hour culture in drug-free medium.

[2] = test system: platinum-sensitive ovarian cancer patient derived xenografts (PDXs); assay: IMGN853 and carboplatin, single administration, in platinum-sensitive ovarian cancer PDX (FIG. 9D); assay type: in vivo, SCID mice; conditions: single administration: IMGN853 2.5 mg/kg and/or carboplatin 80 mg/kg; day 39
Procedure: Data are expressed as mean and standard error of the mean (SEM) for each time point.
To examine whether these in vitro cellular effects translated to improved efficacy in vivo, mice bearing patient-derived xenografts (PDX) obtained from an individual with EOC were treated with IMGN853 and carboplatin, both as single agents and in combination (FIG. 9D). […] Animals received a single administration of IMGN853 (2.5 mg/kg) or carboplatin (80 mg/kg), and each regimen inhibited tumor growth as monotherapy (T/C values of 43% and 20% on day 39, respectively).

[3] = test system: OV90 serous ovarian tumor xenografts; assay: Antitumor activity of IMGN853, cediranib and combination in OV90 tumor model (Example 9); assay type: in vivo, SCID mice; conditions: IMGN853 2.5 mg/kg 1× and/or cediranib 1.5 mg/kg qd×5
From the text: The term “respond favorably” generally refers to causing a beneficial state in a subject. With respect to cancer treatment, the term refers to providing a therapeutic effect on the subject. Positive therapeutic effects in cancer can be measured in a number of ways (See, W. A. Weber, J. Nucl. Med. 50:1S-10S (2009)). For example, tumor growth inhibition, molecular marker expression, serum marker expression, and molecular imaging techniques can all be used to assess therapeutic efficacy of an anti-cancer therapeutic. Log10 Cell Kill (LCK) can be used to quantify the tumor cell kill. Log10 cell kill (LCK) is calculated with the formula LCK=(T−C)/Td×3.32, where (T−C) (or tumor growth delay (TGD)) is the median time (in days) for the treatment group and control group tumors to reach a predetermined size (tumor-free survivors excluded). Td is the tumor doubling time (estimated from nonlinear exponential curve fit of daily median of control tumor growth), and 3.32 is the number of cell doublings per log of cell growth. The ability to reduce tumor volume may be assessed, for example, by measuring a % T/C value, which is the median tumor volume of treated subjects divided by the median tumor volume of the control subjects. With respect to tumor growth inhibition, according to NCI standards, a T/C≤42% is the minimum level of anti-tumor activity. A T/C<10% is considered a high anti-tumor activity level, with T/C (%)=Median tumor volume of the treated/Median tumor volume of the control×100. A favorable response can be assessed, for example, by increased progression-free survival (PFS), disease-free survival (DFS), or overall survival (OS), complete response (CR), partial response (PR), or, in some cases, stable disease (SD), a decrease in progressive disease (PD), a […] time to progression (TTP), a decrease in CA125 in the case of ovarian cancer, or any combination thereof.

[4] = test system: ST088 human epithelial ovarian cancer (EOC) patient-derived tumor xenografts; assay: Antitumor activity of IMGN853, bevacizumab, paclitaxel and combinations in ST088 tumor model (Example 6); assay type: in vivo, SCID mice; conditions: QWx2: IMGN853 5 mg/kg, bevacizumab 5 mg/kg, paclitaxel 10 mg/kg; for T/C: alone or combined; for CR / PR: responders/animals
Procedure: Tumor volumes were measured twice weekly in three dimensions using a caliper.

[5] = test system: OV90 serous ovarian tumor xenografts; assay: Antitumor activity of IMGN853 (1.25 mg/kg), paclitaxel, bevacizumab and combinations in OV90 tumor model (Example 4); assay type: in vivo, SCID mice; conditions: single doses: IMGN853 1.25 mg/kg, paclitaxel 10 mg/kg, bevacizumab 5 mg/kg; for T/C: alone or combined; for CR: responders/animals
Procedure: Mice were randomized into groups (n=8 per group) by tumor volume and subsequently dosed on Day 14 post-inoculation. All treatments consisted of single doses (1×).
Tumor volumes were measured one to two times weekly in three dimensions using a caliper. […] Body weights were measured twice per week as an index of toxicity.

[6] = test system: H2110 non-small cell lung cancer (NSCLC) tumor xenografts
Procedure: Mice were randomized into groups (n=6-10 per group) by tumor volume and subsequently dosed on Day 7 post-inoculation. All treatments consisted of single doses (1×).
Tumor volumes were measured one to two times weekly in three dimensions using a caliper. The tumor volume was expressed in mm^3 using the formula V=Length×Width×Height×½ (Tomayko 1989). Body weights were measured twice per week as an index of test agent toxicity. Activity was assessed as described in Bissery et al. (1991).

[7] = test system: OV90 serous ovarian tumor xenografts; assay: Antitumor activity of IMGN853 (2.5 mg/kg), bevacizumab and combination in OV90 tumor model (Example 3); assay type: in vivo, SCID mice; conditions: IMGN853 2.5 mg/kg 1× and/or bevacizumab 5 mg/kg 1×
From the text: FIG. 2B depicts the results.

[8] = test system: OV-90 xenografts; assay: OV-90 tumors harvested 4 days post-dosing: histology, γH2AX, CD31, anti-maytansine (FIGS. 12A-12C); assay type: in vivo, mice; conditions: IMGN853 2.5 mg/kg and/or bevacizumab 5 mg/kg; day 4
Procedure: Original magnification, 4×; scale bars, 2 mm (for Combination panel, 600 μm).
For each group, representative micrographs from one of three tumors are shown. Original magnification, 20×; scale bars, 200 μm.
Next, as a pharmacodynamic readout, tumor γH2AX levels were measured by immunoblotting (FIG. 12B).
While genotoxic insults are the primary inducers of γH2AX, accumulation of this protein can also occur in response to hypoxia. […] In order to examine treatment-related effects on microvessels, immunohistochemical staining with the endothelial cell marker CD31 was performed (FIG. 12C, upper panel).

[9] = test system: IGROV-1 ovarian tumor xenografts; assay: Antitumor activity of IMGN853, bevacizumab and combination in IGROV-1 tumor model (Example 5); assay type: in vivo, SCID mice; conditions: IMGN853 5 mg/kg 1× and/or bevacizumab 5 mg/kg 1×
From the text: (§1) All treatments consisted of single doses (1×).
FIG. 4 depicts the results.

[10] = test system: platinum-resistant ovarian cancer PDXs; assay: IMGN853 with bevacizumab in platinum-resistant ovarian cancer PDX, 102-day study (FIG. 11B); assay type: in vivo, mice
From the text: Tumor growth was monitored out to 102 days. * P=0.011; ** P=0.018; ns, not significant (Wilcoxon test, non-adjusted).

[11] = test system: OV-90 xenografts; assay: Fractionated bevacizumab dosing with IMGN853 in OV-90 xenografts (FIG. 11A); assay type: in vivo, mice; conditions: IMGN853 3 mg/kg; bevacizumab single 5 mg/kg dose or two 2.5 mg/kg doses (QWx2); monotherapy or combination
[12] = test system: OV90 serous ovarian tumor xenografts; conditions: IMGN853 5 mg/kg 1× and/or bevacizumab 5 mg/kg 1×
Procedure: Mice were randomized into groups (n=6 per group) by tumor volume and subsequently dosed on Day 14 post-inoculation.
Tumor volumes were measured one to two times weekly in three dimensions using a caliper. The tumor volume was expressed in mm^3 using the formula V=Length×Width×Height×½ (Tomayko and Reynolds, Cancer Chemother. Pharmacol. 24:148-54 (1989)) Body weights were measured twice per week as an index of toxicity. Activity was assessed as described in Bissery et al. (1991).

[13] = test system: OV90 ovarian tumor xenografts; assay: Antitumor activity of carboplatin doublets and triple-combinations in OV90 tumor model (Example 8); assay type: in vivo, SCID mice; conditions: single doses: IMGN853 5 mg/kg, carboplatin 100 mg/kg, bevacizumab 5 mg/kg, paclitaxel 10 mg/kg
From the text: as §1
FIG. 7 depicts the results.

[14] = test system: platinum-sensitive PDX tumors; assay: Carboplatin doublets QWx2 in platinum-sensitive PDX (FIG. 9E); assay type: in vivo, mice; conditions: PLD 4 mg/kg or IMGN853 5 mg/kg
Procedure: The combinatorial benefit conferred by IMGN853/carboplatin treatment was compared with clinically relevant chemotherapeutic combinations in the same PDX model. Tumor-bearing animals received two consecutive weekly doses (QWx2) of carboplatin (80 mg/kg, i.p.) in combination with i.v. paclitaxel (10 mg/kg), PLD (4 mg/kg), or IMGN853 (5 mg/kg). As expected, treatment with the carboplatin-paclitaxel doublet was efficacious in this model of platinum sensitivity (FIG. 9E). […] The higher incidence of CRs was strongly indicative of a better durability of response for the combination, and overall the data further supports the combination of IMGN853 with carboplatin for improving response to platinum therapy in EOC.

[15] = IMGN853 3 mg/kg 1× and/or bevacizumab 5 mg/kg 1×
[16] = IMGN853 3 mg/kg 1× and/or bevacizumab 5 mg/kg 1×, responders/animals

For N.N.O=C([O-])C1(C(=O)[O-])CCC1.[Pt+2] [carboplatin, reference compound], the cell cycle distribution [1] was “accumulation of IGROV-1 cells in both the S and G2/M phases” and the T/C [2] was 20%.

For COc1cc2c(Oc3ccc4[nH]c(C)cc4c3F)ncnc2cc1OCCCN1CCCC1 [cediranib, reference compound], the T/C [3] was 80%, the antitumor activity rating [3] was “inactive” and the LCK ([3]; Log10 cell kill) was 0.1. The PR ([3]; responders/animals) was 0/6 and the “T−C” value ([3]; tumor growth delay) was 4 days.

In the case of CC(=O)O[C@H]1C(=O)[C@@]2(C)[C@H]([C@H](OC(=O)c3ccccc3)[C@]3(O)C[C@H](OC(=O)[C@H](O)[C@@H](NC(=O)c4ccccc4)c4ccccc4)C(C)=C1C3(C)C)[C@]1(OC(C)=O)CO[C@@H]1C[C@@H]2O [paclitaxel], the antitumor activity rating [4] is reported as “inactive”, the T/C [4] is reported as 71% and the CR [4] is reported as 0/8. For the same molecule, the PR [4] was 0/8, the TFS [5] was 0/6 and the antitumor activity rating [5] was “inactive”. The T/C [5] was 94% and the CR [5] was 0/6.

With “bevacizumab: recombinant humanized monoclonal IgG1 anti-VEGF antibody; active ingredient in Avastin [reference compound]” the T/C [6, 15] was 22%, the TFS [6, 15] was 0/6 and the antitumor activity rating [6, 15] was “active”. For the same molecule, the CR [6, 16] was 0/6, the PR [6, 16] was 0/6 and the body weight loss ([6]; bevacizumab 5 mg/kg monotherapy, Day 49 post-inoculation) was 9%. For the same molecule, the antitumor activity rating [4] was “highly active”, the T/C [4] was 6% and the CR [4] was 0/8. The PR [4] was 0/8, the T/C [7] was 31% and the TFS [7] was 0/6. The antitumor activity rating [7] was “active”, the CR ([7]; responders/animals) was 0/6 and the “tumor microvessels, CD31 immunohistochemical staining” value [8] was “decreased in size and showed loss of luminal integrity”. For the same molecule, the T/C [9] was 51%, the TFS [9] was 0/4 and the antitumor activity rating [9] was “inactive”. The CR ([9]; responders/animals) was 0/4, the CRs ([10]; 5 mg/kg QWx2, over the course of a 102-day study) was “no CRs” and the antitumor effect ([10]; IMGN853 5 mg/kg QWx2, bevacizumab 5 mg/kg QWx2, alone or combined) was “prolonged growth control”. The TFS [5] was 0/8, the antitumor activity rating [5] was “active” and the T/C [5] was 22%. For the same molecule, the CR [5] was 0/8, the antitumor effect [11] was “Split-dosing had no effect” and the T/C [12] was 37%. The antitumor activity rating [12] was “active”, the “tumor free survivors (TFS)” value [12] was 0/6 and the CR ([12]; responders/animals) was 0/6.

For paclitaxel+carboplatin, the T/C [13] was 45%, the TFS [13] was 0/6 and the antitumor activity rating [13] was “inactive”. The “body weight loss (BWL) at nadir” value [13] was 11.1%, the CR ([13]; responders/animals) was 0/6 and the antitumor effect ([14]; QWx2: carboplatin 80 mg/kg i.p. with i.v. paclitaxel 10 mg/kg) was “efficacious”. The tolerability ([14]; QWx2: carboplatin 80 mg/kg i.p. with paclitaxel 10 mg/kg) was “well tolerated” and the “complete regressions (CR)” value ([14]; QWx2: carboplatin 80 mg/kg i.p. with paclitaxel 10 mg/kg, n=7 mice/group) was “none”.
